Test results as given in patent publication US10798941B2, “Microbiocidal oxadiazole derivatives” (SYNGENTA PARTICIPATIONS AG, priority 2016, dated 2020).

Key:
[1] = system: Puccinia recondita f. Sp. Tritici; experiment: Puccinia recondita f. sp. tritici / wheat / leaf disc curative (brown rust); type: in vivo; conditions: foliar, 144 h, 200 ppm in the applied formulation, wheat leaf segments cv. Kanzler, applied 1 day after inoculation, assessed 6 to 8 days after application, vs untreated, read-out: disease control
Procedure, shortened: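 Read-out is percent disease control relative to untreated segments, assessed 6 to 8 days after treatment once check disease is adequate. Kanzler wheat leaf segments on agar receive fungal spores, then test compound (DMSO stock diluted in 0.025% Tween20 or water) 1 day later, under 19° C and 75% relative humidity.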

Phakopsora pachyrhizi = Phakopsora pachyrhizi / soybean / leaf disc preventative (Asian soybean rust); type: in vivo; conditions: foliar, 288 h, 200 ppm in the applied formulation, soybean leaf disks, inoculated one day after application, assessed 12 to 14 days after application, vs untreated, read-out: disease control
Experimental: Leaf disks or leaf segments of various plant species are cut from plants grown in a greenhouse. The cut leaf disks or segments are placed in multiwell plates (24-well format) onto water agar. The leaf disks are sprayed with a test solution before (preventative) or after (curative) inoculation. Compounds to be tested are prepared as DMSO solutions (max. 10 mg/ml) which are diluted to the appropriate concentration with 0.025% Tween20 just before spraying. The inoculated leaf disks or segments are incubated under defined conditions (temperature, relative humidity, light, etc.) according to the respective test system. A single evaluation of disease level is carried out 3 to 14 days after inoculation, depending on the pathosystem. Percent disease control relative to the untreated check leaf disks or segments is then calculated.
Soybean leaf disks are placed on water agar in multiwell plates (24-well format) and sprayed with the formulated test compound diluted in water. One day after application leaf discs are inoculated by spraying a spore suspension on the lower leaf surface. After an incubation period in a climate cabinet of 24-36 hours in darkness at 20° C. and 75% rh leaf disc are kept at 20° C. with 12 h light/day and 75% rh. The activity of a compound is assessed as percent disease control compared to untreated when an appropriate level of disease damage appears in untreated check leaf disks (12 to 14 days after application).
The following compounds at 200 ppm in the applied formulation give at least 80% disease control in this test when compared to untreated control leaf disks under the same conditions, which show extensive disease development.

[2] = system: Puccinia recondita f. Sp. Tritici; experiment: Puccinia recondita f. sp. tritici / wheat / leaf disc preventative (brown rust); type: in vivo; conditions: foliar, 168 h, 200 ppm in the applied formulation, wheat leaf segments cv. Kanzler, preventative, inoculated 1 day after application, assessed 7 to 9 days after application, vs untreated, read-out: disease control
Procedure, shortened: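 Wheat cv. Kanzler leaf segments on agar were sprayed with formulated compound in water, then inoculated with spores 1 day later. Incubated at 19° C, 75% rh, 12 h light/12 h dark; percent disease control versus untreated scored 7 to 9 days after application.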

[3] = system: Glomerella Lagenarium (Colletotrichum Lagenarium); experiment: Glomerella lagenarium (Colletotrichum lagenarium) liquid culture / cucumber / preventative (anthracnose); type: cell-based; conditions: Colletotrichum orbiculare; 20 ppm in the applied formulation; liquid culture in PDB, 24° C., inhibition of growth measured photometrically 3 to 4 days after application, vs untreated; read-out: disease control
Procedure, shortened: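 Conidia from cryogenic storage were mixed into potato dextrose broth. This was added to compound diluted from DMSO into 0.025% Tween20, tested at 20 ppm. Plates were incubated in the dark at 24 °C and 96% relative humidity, and growth was read photometrically after 2–7 days as % activity versus untreated check.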

FC(F)(F)c1nc(-c2ccc(Cn3ccc(Cl)n3)cc2)no1 [Compound 1.243, 3-[4-[(3-chloropyrazol-1-yl)methyl]phenyl]-5-(trifluoromethyl)-1,2,4-oxadiazole]
≥ 80%: pest or weed control at 200 ppm [1] | pest or weed control at 200 ppm (Phakopsora pachyrhizi) | pest or weed control at 200 ppm [2] | inhibition of growth at 20 ppm [3]

O=C(O)c1cnn(Cc2ccc(-c3noc(C(F)(F)F)n3)cc2)c1 [Compound 1.147, 1-[[4-[5-(trifluoromethyl)-1,2,4-oxadiazol-3-yl]phenyl]methyl]pyrazole-4-carboxylic acid]
≥ 80%: pest or weed control at 200 ppm [1] | pest or weed control at 200 ppm (Phakopsora pachyrhizi) | pest or weed control at 200 ppm [2] | inhibition of growth at 20 ppm [3]

COc1ccc(C(C)c2ccc(-c3noc(C(F)(F)F)n3)cc2)cn1 (stereo not shown) [Compound 1.42, 3-[4-[1-(6-methoxy-3-pyridyl)ethyl]phenyl]-5-(trifluoromethyl)-1,2,4-oxadiazole]
≥ 80%: pest or weed control at 200 ppm [1] | pest or weed control at 200 ppm (Phakopsora pachyrhizi) | pest or weed control at 200 ppm [2] | inhibition of growth at 20 ppm [3]

Cc1cc(C)n(C(C)c2ccc(-c3noc(C(F)(F)F)n3)cc2)n1 (stereo not shown) [Compound 1.303, 3-[4-[1-(3,5-dimethylpyrazol-1-yl)ethyl]phenyl]-5-(trifluoromethyl)-1,2,4-oxadiazole]
≥ 80%: pest or weed control at 200 ppm [1] | pest or weed control at 200 ppm (Phakopsora pachyrhizi) | pest or weed control at 200 ppm [2] | inhibition of growth at 20 ppm [3]

CCOC(=O)c1cccnc1-c1ccn(Cc2ccc(-c3noc(C(F)(F)F)n3)cc2)n1 [Compound 1.219, ethyl 2-[1-[[4-[5-(trifluoromethyl)-1,2,4-oxadiazol-3-yl]phenyl]methyl]pyrazol-3-yl]pyridine-3-carboxylate]
≥ 80%: pest or weed control at 200 ppm [1] | pest or weed control at 200 ppm (Phakopsora pachyrhizi) | pest or weed control at 200 ppm [2] | inhibition of growth at 20 ppm [3]

COc1nc(Br)nn1Cc1ccc(-c2noc(C(F)(F)F)n2)cc1 [Compound 1.233, 3-[4-[(3-bromo-5-methoxy-1,2,4-triazol-1-yl)methyl]phenyl]-5-(trifluoromethyl)-1,2,4-oxadiazole]
≥ 80%: pest or weed control at 200 ppm [1] | pest or weed control at 200 ppm (Phakopsora pachyrhizi) | pest or weed control at 200 ppm [2] | inhibition of growth at 20 ppm [3]

CCSc1ncn(Cc2ccc(-c3noc(C(F)(F)F)n3)cc2)n1 [Compound 1.208, 3-[4-[(3-ethylsulfanyl-1,2,4-triazol-1-yl)methyl]phenyl]-5-(trifluoromethyl)-1,2,4-oxadiazole]
≥ 80%: pest or weed control at 200 ppm [1] | pest or weed control at 200 ppm (Phakopsora pachyrhizi) | pest or weed control at 200 ppm [2] | inhibition of growth at 20 ppm [3]

COC(=O)c1ncnn1Cc1ccc(-c2noc(C(F)(F)F)n2)cc1 [Compound 1.36, methyl 2-[[4-[5-(trifluoromethyl)-1,2,4-oxadiazol-3-yl]phenyl]methyl]-1,2,4-triazole-3-carboxylate]
≥ 80%: pest or weed control at 200 ppm [1] | pest or weed control at 200 ppm (Phakopsora pachyrhizi) | pest or weed control at 200 ppm [2] | inhibition of growth at 20 ppm [3]

CC(C)c1nccn1Cc1ccc(-c2noc(C(F)(F)F)n2)cc1 [Compound 1.56, 3-[4-[(2-isopropylimidazol-1-yl)methyl]phenyl]-5-(trifluoromethyl)-1,2,4-oxadiazole]
≥ 80%: pest or weed control at 200 ppm [1] | pest or weed control at 200 ppm (Phakopsora pachyrhizi) | pest or weed control at 200 ppm [2] | inhibition of growth at 20 ppm [3]

N#Cc1ncnn1Cc1ccc(-c2noc(C(F)(F)F)n2)c(F)c1 [Compound 1.256, 2-[[3-fluoro-4-[5-(trifluoromethyl)-1,2,4-oxadiazol-3-yl]phenyl]methyl]-1,2,4-triazole-3-carbonitrile]
≥ 80%: pest or weed control at 200 ppm [1] | pest or weed control at 200 ppm (Phakopsora pachyrhizi) | pest or weed control at 200 ppm [2] | inhibition of growth at 20 ppm [3]

FC(F)(F)c1nc(-c2ccc(Cn3ccnc3Br)cc2)no1 [Compound 1.49, 3-[4-[(2-bromoimidazol-1-yl)methyl]phenyl]-5-(trifluoromethyl)-1,2,4-oxadiazole]
≥ 80%: pest or weed control at 200 ppm [1] | pest or weed control at 200 ppm (Phakopsora pachyrhizi) | pest or weed control at 200 ppm [2] | inhibition of growth at 20 ppm [3]

CC(=O)NCCc1cn(Cc2ccc(-c3noc(C(F)(F)F)n3)cc2)cn1 [Compound 1.156, N-[2-[1-[[4-[5-(trifluoromethyl)-1,2,4-oxadiazol-3-yl]phenyl]methyl]imidazol-4-yl]ethyl]acetamide]
≥ 80%: pest or weed control at 200 ppm [1] | pest or weed control at 200 ppm (Phakopsora pachyrhizi) | pest or weed control at 200 ppm [2]

CC(C)ON=Cc1cnn(Cc2ccc(-c3noc(C(F)(F)F)n3)cc2)c1 [Compound 1.288, N-isopropoxy-1-[1-[[4-[5-(trifluoromethyl)-1,2,4-oxadiazol-3-yl]phenyl]methyl]pyrazol-4-yl]methanimine]
≥ 80%: pest or weed control at 200 ppm [1] | pest or weed control at 200 ppm (Phakopsora pachyrhizi) | pest or weed control at 200 ppm [2] | inhibition of growth at 20 ppm [3]

FC(F)(F)c1nc(-c2ccc(Cn3cnc(Br)c3)cc2)no1 [Compound 1.79, 3-[4-[(4-bromoimidazol-1-yl)methyl]phenyl]-5-(trifluoromethyl)-1,2,4-oxadiazole]
≥ 80%: pest or weed control at 200 ppm [1] | pest or weed control at 200 ppm (Phakopsora pachyrhizi) | pest or weed control at 200 ppm [2] | inhibition of growth at 20 ppm [3]

CC1CN(Cc2ccc(-c3noc(C(F)(F)F)n3)cc2)CC(C)O1 (stereo not shown) [Compound 1.306, 2,6-dimethyl-4-[[4-[5-(trifluoromethyl)-1,2,4-oxadiazol-3-yl]phenyl]methyl]morpholine]
≥ 80%: pest or weed control at 200 ppm [1] | pest or weed control at 200 ppm (Phakopsora pachyrhizi) | pest or weed control at 200 ppm [2] | inhibition of growth at 20 ppm [3]

Cc1cc(C)n(Cc2ccc(-c3noc(C(F)(F)F)n3)cc2F)n1 [Compound 1.102, 3-[4-[(3,5-dimethylpyrazol-1-yl)methyl]-3-fluoro-phenyl]-5-(trifluoromethyl)-1,2,4-oxadiazole]
≥ 80%: pest or weed control at 200 ppm [1] | pest or weed control at 200 ppm (Phakopsora pachyrhizi) | pest or weed control at 200 ppm [2] | inhibition of growth at 20 ppm [3]

CC(C)OC(=O)c1cnn(Cc2ccc(-c3noc(C(F)(F)F)n3)cc2)c1 [Compound 1.263, isopropyl 1-[[4-[5-(trifluoromethyl)-1,2,4-oxadiazol-3-yl]phenyl]methyl]pyrazole-4-carboxylate]
≥ 80%: pest or weed control at 200 ppm [1] | pest or weed control at 200 ppm (Phakopsora pachyrhizi) | pest or weed control at 200 ppm [2] | inhibition of growth at 20 ppm [3]

N#Cc1cn(Cc2ccc(-c3noc(C(F)(F)F)n3)cc2)cn1 [Compound 1.154, 1-[[4-[5-(trifluoromethyl)-1,2,4-oxadiazol-3-yl]phenyl]methyl]imidazole-4-carbonitrile]
≥ 80%: pest or weed control at 200 ppm [1] | pest or weed control at 200 ppm (Phakopsora pachyrhizi) | pest or weed control at 200 ppm [2] | inhibition of growth at 20 ppm [3]

O=Cc1cn(Cc2ccc(-c3noc(C(F)(F)F)n3)cc2)cn1 [Compound 1.151, 1-[[4-[5-(trifluoromethyl)-1,2,4-oxadiazol-3-yl]phenyl]methyl]imidazole-4-carbaldehyde]
≥ 80%: pest or weed control at 200 ppm [1] | pest or weed control at 200 ppm (Phakopsora pachyrhizi) | pest or weed control at 200 ppm [2] | inhibition of growth at 20 ppm [3]

COC(=O)c1cn(Cc2ccc(-c3noc(C(F)(F)F)n3)cc2)nc1C1CC1 [Compound 1.237, methyl 3-cyclopropyl-1-[[4-[5-(trifluoromethyl)-1,2,4-oxadiazol-3-yl]phenyl]methyl]pyrazole-4-carboxylate]
≥ 80%: pest or weed control at 200 ppm [1] | pest or weed control at 200 ppm (Phakopsora pachyrhizi) | pest or weed control at 200 ppm [2] | inhibition of growth at 20 ppm [3]

N#Cc1nnn(Cc2ccc(-c3noc(C(F)(F)F)n3)cc2)c1-c1c(F)cccc1F [Compound 1.240, 5-(2,6-difluorophenyl)-1-[[4-[5-(trifluoromethyl)-1,2,4-oxadiazol-3-yl]phenyl]methyl]triazole-4-carbonitrile]
≥ 80%: pest or weed control at 200 ppm (Phakopsora pachyrhizi) | pest or weed control at 200 ppm [2] | inhibition of growth at 20 ppm [3]
